# According to article PMC9090415, “Discovery of small molecule inhibitors of Plasmodium falciparum apicoplast DNA polymerase” (Journal of Enzyme Inhibition and Medicinal Chemistry, 2022):
# Target: P. falciparum apicoplast DNA polymerase (Pf-apPOL) (Plasmodium falciparum, UniProt Q8ILY1)
# Experiment: Fluorescence-based high-throughput DNA polymerase assay (molecular beacon), primary screen and dose-response;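 on % inhibition ApPOL 90': test concentration in µM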;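 on % inhibition apPOL 180': test concentration in µM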
# Type: biochemical
# Summary of the method: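 Single-point screening used 10 µM compound with 20 nM polymerase, 20 nM hairpin substrate and 6 µM dNTPs for 90 min at 25 °C. Confirmatory titrations (2.5–80 µM) followed fluorescence at three times, and IC50 was derived from a fit including a cooperativity term n.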
# Chain of P. falciparum apicoplast DNA polymerase (Pf-apPOL) (Q8ILY1 entry or part of it): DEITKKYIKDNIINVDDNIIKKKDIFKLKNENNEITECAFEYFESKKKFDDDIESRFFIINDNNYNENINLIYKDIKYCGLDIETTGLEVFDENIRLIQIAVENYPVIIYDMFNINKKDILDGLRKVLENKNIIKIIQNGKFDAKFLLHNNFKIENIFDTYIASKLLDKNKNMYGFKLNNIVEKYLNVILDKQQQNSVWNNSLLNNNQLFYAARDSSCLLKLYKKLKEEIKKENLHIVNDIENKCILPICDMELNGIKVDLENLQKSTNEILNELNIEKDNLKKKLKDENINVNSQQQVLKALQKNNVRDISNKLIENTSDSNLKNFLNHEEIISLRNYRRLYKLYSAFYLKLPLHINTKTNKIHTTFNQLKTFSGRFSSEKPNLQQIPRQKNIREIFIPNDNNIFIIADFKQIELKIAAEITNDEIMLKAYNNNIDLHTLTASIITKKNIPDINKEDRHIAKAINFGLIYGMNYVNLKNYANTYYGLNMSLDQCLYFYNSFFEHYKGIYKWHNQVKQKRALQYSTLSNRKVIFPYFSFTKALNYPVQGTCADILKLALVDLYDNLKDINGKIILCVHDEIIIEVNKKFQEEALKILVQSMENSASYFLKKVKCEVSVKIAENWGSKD
smiles,measurement,setting,value
O=C(O)CC1=NN(c2cccc([N+](=O)[O-])c2)C(=O)C1 [KU0100531],DNA Pol,"'DNA Pol'; screening value, unit not given; 90 min, 10 µM",37
same,% inhibition Apo pol 10',DRC-1; 10'; concentration 2.5,32.2581%
same,% inhibition Apo pol 10',DRC-1; 10'; concentration 5,49.6373%
same,% inhibition Apo pol 10',DRC-1; 10'; concentration 10,61.4137%
same,% inhibition Apo pol 10',DRC-1; 10'; concentration 20,68.5645%
same,% inhibition Apo pol 10',DRC-1; 10'; concentration 40,76.8361%
same,% inhibition Apo pol 10',DRC-1; 10'; concentration 80,88.3009%
same,% inhibition Apol 90',DRC-1; 90'; concentration 2.5,15.7319%
same,% inhibition Apol 90',DRC-1; 90'; concentration 5,18.7201%
same,% inhibition Apol 90',DRC-1; 90'; concentration 10,28.2695%
same,% inhibition Apol 90',DRC-1; 90'; concentration 20,34.3533%
same,% inhibition Apol 90',DRC-1; 90'; concentration 40,46.1706%
same,% inhibition Apol 90',DRC-1; 90'; concentration 80,68.1347%
same,% inhibition apPOL 180',DRC-1; 180'; concentration 2.5,13.4028%
same,% inhibition apPOL 180',DRC-1; 180'; concentration 5,8.316%
same,% inhibition apPOL 180',DRC-1; 180'; concentration 10,15.9728%
same,% inhibition apPOL 180',DRC-1; 180'; concentration 20,20.4489%
same,% inhibition apPOL 180',DRC-1; 180'; concentration 40,28.0717%
same,% inhibition apPOL 180',DRC-1; 180'; concentration 80,50.5655%
same,% inhibition Apo pol 5',"DRC-2, 5', concentration 2.5",25%
same,% inhibition Apo pol 5',"DRC-2, 5', concentration 5",36%
same,% inhibition Apo pol 5',"DRC-2, 5', concentration 10",45%
same,% inhibition Apo pol 5',"DRC-2, 5', concentration 20",50%
same,% inhibition Apo pol 5',"DRC-2, 5', concentration 40",58%
same,% inhibition Apo pol 5',"DRC-2, 5', concentration 80",66%
same,% inhibition Apol 40',"DRC-2, 40', concentration 2.5",12%
same,% inhibition Apol 40',"DRC-2, 40', concentration 5",21%
same,% inhibition Apol 40',"DRC-2, 40', concentration 10",32%
same,% inhibition Apol 40',"DRC-2, 40', concentration 20",39%
same,% inhibition Apol 40',"DRC-2, 40', concentration 40",54%
same,% inhibition Apol 40',"DRC-2, 40', concentration 80",71%
same,% inhibition ApPOL 90',"DRC-2, 90', concentration 2.5",6%
same,% inhibition ApPOL 90',"DRC-2, 90', concentration 5",15%
same,% inhibition ApPOL 90',"DRC-2, 90', concentration 10",24%
same,% inhibition ApPOL 90',"DRC-2, 90', concentration 20",31%
same,% inhibition ApPOL 90',"DRC-2, 90', concentration 40",48%
same,% inhibition ApPOL 90',"DRC-2, 90', concentration 80",71%
same,% inhibition apPOL 180',"DRC-2, 180', concentration 2.5",2%
same,% inhibition apPOL 180',"DRC-2, 180', concentration 5",7.6%
same,% inhibition apPOL 180',"DRC-2, 180', concentration 10",17%
same,% inhibition apPOL 180',"DRC-2, 180', concentration 20",23%
same,% inhibition apPOL 180',"DRC-2, 180', concentration 40",41%
same,% inhibition apPOL 180',"DRC-2, 180', concentration 80",70%
same,% inhibition Apol 40',conc 80 (unit not given); 40'; DRC-2,71%
same,% inhibition ApPOL 90',conc 80 (unit not given); 90'; DRC-2,71%
same,DNA Pol,"primary screen hit value, DNA Pol (186 hits); 90 min, 10 µM",37
O=c1cc(-c2ccccc2Cl)oc2c(NS(=O)(=O)c3cc(Cl)cc(Cl)c3O)ccc(O)c12 [KU0104277],% inhibition Apo pol 10',DRC-1; 10'; concentration 2.5,-4.204%
same,% inhibition Apo pol 10',DRC-1; 10'; concentration 5,6.708%
same,% inhibition Apo pol 10',DRC-1; 10'; concentration 10,7.439%
same,% inhibition Apo pol 10',DRC-1; 10'; concentration 20,27.5333%
same,% inhibition Apo pol 10',DRC-1; 10'; concentration 40,73.9275%
same,% inhibition Apo pol 10',DRC-1; 10'; concentration 80,90.8547%
same,% inhibition Apol 90',DRC-1; 90'; concentration 2.5,-8.287%
same,% inhibition Apol 90',DRC-1; 90'; concentration 5,2.039%
same,% inhibition Apol 90',DRC-1; 90'; concentration 10,0.6918%
same,% inhibition Apol 90',DRC-1; 90'; concentration 20,20.1462%
same,% inhibition Apol 90',DRC-1; 90'; concentration 40,69.1951%
same,% inhibition Apol 90',DRC-1; 90'; concentration 80,87.9641%
same,% inhibition apPOL 180',DRC-1; 180'; concentration 2.5,-13.4888%
same,% inhibition apPOL 180',DRC-1; 180'; concentration 5,-5.423%
same,% inhibition apPOL 180',DRC-1; 180'; concentration 10,-7.477%
same,% inhibition apPOL 180',DRC-1; 180'; concentration 20,7.115%
same,% inhibition apPOL 180',DRC-1; 180'; concentration 40,55.1056%
same,% inhibition apPOL 180',DRC-1; 180'; concentration 80,83.6554%
same,% inhibition Apo pol 5',DRC-2; 5'; concentration 2.5,-4%
same,% inhibition Apo pol 5',DRC-2; 5'; concentration 5,-2.32%
same,% inhibition Apo pol 5',DRC-2; 5'; concentration 10,35%
same,% inhibition Apo pol 5',DRC-2; 5'; concentration 20,11%
same,% inhibition Apo pol 5',DRC-2; 5'; concentration 40,63%
same,% inhibition Apo pol 5',DRC-2; 5'; concentration 80,65%
same,% inhibition Apol 40',DRC-2; 40'; concentration 2.5,-1.34%
same,% inhibition Apol 40',DRC-2; 40'; concentration 5,-1%
same,% inhibition Apol 40',DRC-2; 40'; concentration 10,42%
same,% inhibition Apol 40',DRC-2; 40'; concentration 20,11%
same,% inhibition Apol 40',DRC-2; 40'; concentration 40,74%
same,% inhibition Apol 40',DRC-2; 40'; concentration 80,75%
same,% inhibition ApPOL 90',DRC-2; 90'; concentration 2.5,-1%
same,% inhibition ApPOL 90',DRC-2; 90'; concentration 5,0.948%
same,% inhibition ApPOL 90',DRC-2; 90'; concentration 10,41%
same,% inhibition ApPOL 90',DRC-2; 90'; concentration 20,9%
same,% inhibition ApPOL 90',DRC-2; 90'; concentration 40,75%
same,% inhibition ApPOL 90',DRC-2; 90'; concentration 80,76%
same,% inhibition apPOL 180',DRC-2; 180'; concentration 2.5,-2.11%
same,% inhibition apPOL 180',DRC-2; 180'; concentration 5,-2.49%
same,% inhibition apPOL 180',DRC-2; 180'; concentration 10,33%
same,% inhibition apPOL 180',DRC-2; 180'; concentration 20,3.69%
same,% inhibition apPOL 180',DRC-2; 180'; concentration 40,72%
same,% inhibition apPOL 180',DRC-2; 180'; concentration 80,73%
same,% inhibition ApPOL 90',conc. 2.5; 90'; DRC-2,-1%
same,% inhibition Apol 40',conc. 5; 40'; DRC-2,-1%
same,% inhibition Apo pol 5',conc. 20; 5'; DRC-2,11%
same,% inhibition Apol 40',conc. 20; 40'; DRC-2,11%
same,% inhibition ApPOL 90',conc. 40; 90'; DRC-2,75%
same,% inhibition Apol 40',conc. 80; 40'; DRC-2,75%
same,DNA Pol,"primary screen value by plate and well; 90 min, 10 µM",36
same,DNA Pol,"primary screen value of the 186 hits; unit not given; 90 min, 10 µM",36
